10 molecules from patent US20260022142A1, “MACROCYCLIC IMMUNOMODULATORS” (Bristol-Myers Squibb Company, priority 2022, published 2026) can be followed below.

Usually IC50 stands for the midpoint of a concentration-inhibition curve.

Structures are written as SMILES. Bridge positions count the residues as written; N and C are the ends. Square brackets hold non-standard residues; d marks the D form. Peptide text beside a SMILES is read from it. * marks the point of attachment. Ala(indol-2-yl) = N[C@@H](Cc1cc2ccccc2[nH]1)C(=O)O; Bip = N[C@@H](Cc1ccc(-c2ccccc2)cc1)C(=O)O; Phe(3-Me) = Cc1cccc(C[C@H](N)C(=O)O)c1; Cha = N[C@@H](CC1CCCCC1)C(=O)O; dCha = N[C@H](CC1CCCCC1)C(=O)O; dNle = CCCC[C@@H](N)C(=O)O; Carboxymethyl = O=C(O)C*; Orn = NCCC[C@H](N)C(=O)O; Aun = NCCCCCCCCCCC(=O)O; Dab = NCC[C@H](N)C(=O)O; Dap = NC[C@H](N)C(=O)O; AEEA = NCCOCCOCC(=O)O

The target in the assay is T1, PD-1/PD-L1 interaction (PE-labeled human PD-L1-Ig binding to Jurkat cell line over-expressing human PD-1) (Homo sapiens, UniProt Q15116).
T1 construct: expressed in transfected cells; host or cells: Jurkat
T1 sequence (Q15116 25-288): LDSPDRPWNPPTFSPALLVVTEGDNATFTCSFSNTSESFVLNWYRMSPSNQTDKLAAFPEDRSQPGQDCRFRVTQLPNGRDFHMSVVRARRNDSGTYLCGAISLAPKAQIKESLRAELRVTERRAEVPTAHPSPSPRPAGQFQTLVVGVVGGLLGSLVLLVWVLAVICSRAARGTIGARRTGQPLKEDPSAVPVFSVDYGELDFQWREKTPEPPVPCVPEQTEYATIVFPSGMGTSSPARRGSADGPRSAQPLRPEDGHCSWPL
Put plainly: Jurkat-PD-1 Cell Binding High-Content Screening Assay (CBA). Particulars: Jurkat cell line over-expressing human PD-1; PE-labeled PD-L1-Ig 20 nM final; read-out: Jurkat hPD1-PDL1 IC50. Format: cell-based. In short, it runs like this:
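Jurkat cells stably over-expressing human PD-1 were seeded in DMEM with 10% fetal calf serum and pre-incubated with compound for 2 h at 37° C. PE-labeled human PD-L1-Ig was then added at 20 nM final for 1 hour, after which cells were fixed with paraformaldehyde, Hoechst-stained and imaged by high-content microscopy.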
For `CCCC[C@H]1NC(=O)[C@H](CCCN)NC(=O)[C@H](C(C)C)NC(=O)[C@H](Cc2ccc(-c3ccccc3)cc2)NC(=O)[C@H](C(C)C)NC(=O)[C@H](Cc2cccc(C)c2)NC(=O)[C@H](CC(=O)O)NC(=O)[C@H](Cc2ccc(OCC(=O)O)cc2)NC(=O)[C@H](CN)NC(=O)CSC[C@@H](C(=O)NCCOCCOCC(=O)N[C@@H](CCN)C(=O)NCCCCCCCCCCC(=O)O)NC(=O)[C@H](CN)NC(=O)[C@H](C(C)C)NC(=O)[C@H](CC2CCCCC2)NC(=O)[C@H](CCN)NC1=O` [Compound 2674] ({CH2CO}-[Dap]Y(Carboxymethyl)D[Phe(3-Me)]V[Bip]V[Orn][dNle][Dab][Cha]V[Dap]C[AEEA][Dab][Aun]-OH; thioether N-14), the 50% inhibitory concentration (IC50) stood at 0.012 µM.
Turning to `Cc1cccc(C[C@@H]2NC(=O)[C@H](CC(=O)O)NC(=O)[C@H](Cc3ccc(OCC(=O)O)cc3)NC(=O)[C@H](CN)NC(=O)CSC[C@@H](C(=O)NCCOCCOCC(=O)N[C@@H](CCN)C(=O)NCCCCCCCCCCC(=O)O)NC(=O)[C@H](CN)NC(=O)[C@H](C(C)C)NC(=O)[C@H](CC3CCCCC3)NC(=O)[C@H](CCN)NC(=O)[C@@H](CC3CCCCC3)NC(=O)[C@H](CCCN)NC(=O)[C@H](C(C)C)NC(=O)[C@H](Cc3ccc(-c4ccccc4)cc3)NC(=O)[C@H](C(C)C)NC2=O)c1` [Compound 2675] ({CH2CO}-[Dap]Y(Carboxymethyl)D[Phe(3-Me)]V[Bip]V[Orn][dCha][Dab][Cha]V[Dap]C[AEEA][Dab][Aun]-OH; thioether N-14), the IC50 was determined as 0.0241 µM.
Next, `CCCC[C@H]1NC(=O)[C@H](CCCN)NC(=O)[C@H](C(C)C)NC(=O)[C@H](Cc2ccc(-c3ccccc3)cc2)NC(=O)[C@H](C(C)C)NC(=O)[C@H](Cc2cccc(C)c2)NC(=O)[C@H](CC(=O)O)NC(=O)[C@H](Cc2ccc(OCC(=O)O)cc2)NC(=O)[C@H](CN)NC(=O)CSC[C@@H](C(=O)NCCOCCOCC(=O)N[C@@H](CCN)C(=O)NCCCCCCCCCCC(=O)O)NC(=O)[C@H](CCCN)NC(=O)[C@H](C(C)C)NC(=O)[C@H](CC2CCCCC2)NC(=O)[C@H](CCN)NC1=O` [Compound 2676] ({CH2CO}-[Dap]Y(Carboxymethyl)D[Phe(3-Me)]V[Bip]V[Orn][dNle][Dab][Cha]V[Orn]C[AEEA][Dab][Aun]-OH; thioether N-14): 0.0102 µM; `Cc1cccc(C[C@@H]2NC(=O)[C@H](CC(=O)O)NC(=O)[C@H](Cc3ccc(OCC(=O)O)cc3)NC(=O)[C@H](CN)NC(=O)CSC[C@@H](C(=O)NCCOCCOCC(=O)N[C@@H](CCN)C(=O)NCCCCCCCCCCC(=O)O)NC(=O)[C@H](CCCN)NC(=O)[C@H](C(C)C)NC(=O)[C@H](CC3CCCCC3)NC(=O)[C@H](CCN)NC(=O)[C@@H](CC3CCCCC3)NC(=O)[C@H](CCCN)NC(=O)[C@H](C(C)C)NC(=O)[C@H](Cc3ccc(-c4ccccc4)cc3)NC(=O)[C@H](C(C)C)NC2=O)c1` [Compound 2677] ({CH2CO}-[Dap]Y(Carboxymethyl)D[Phe(3-Me)]V[Bip]V[Orn][dCha][Dab][Cha]V[Orn]C[AEEA][Dab][Aun]-OH; thioether N-14): 0.018 µM; `CCCC[C@H]1NC(=O)[C@H](CCCN)NC(=O)[C@H](C(C)C)NC(=O)[C@H](Cc2ccc(-c3ccccc3)cc2)NC(=O)[C@H](C(C)C)NC(=O)[C@H](Cc2cc3ccccc3[nH]2)NC(=O)[C@H](CC(=O)O)NC(=O)[C@H](Cc2ccc(OCC(=O)O)cc2)NC(=O)[C@H](CN)NC(=O)CSC[C@@H](C(=O)N[C@@H](CCN)C(=O)NCCOCCOCC(=O)NCCCCCCCCCCC(=O)O)NC(=O)[C@H](CCCCN)NC(=O)[C@H](C(C)C)NC(=O)[C@H](CC2CCCCC2)NC(=O)[C@H](CCN)NC1=O` [Compound 2678] ({CH2CO}-[Dap]Y(Carboxymethyl)D[Ala(indol-2-yl)]V[Bip]V[Orn][dNle][Dab][Cha]VKC[Dab][AEEA][Aun]-OH; thioether N-14): 0.0152 µM.
On to `CC(C)[C@@H]1NC(=O)[C@H](CC2CCCCC2)NC(=O)[C@H](CCN)NC(=O)[C@@H](CC2CCCCC2)NC(=O)[C@H](CCCN)NC(=O)[C@H](C(C)C)NC(=O)[C@H](Cc2ccc(-c3ccccc3)cc2)NC(=O)[C@H](C(C)C)NC(=O)[C@H](Cc2c[nH]c3ccccc23)NC(=O)[C@H](CC(=O)O)NC(=O)[C@H](Cc2ccc(OCC(=O)O)cc2)NC(=O)[C@H](CN)NC(=O)CSC[C@@H](C(=O)N[C@@H](CCN)C(=O)NCCOCCOCC(=O)NCCCCCCCCCCC(=O)O)NC(=O)[C@H](CCCCN)NC1=O` [Compound 2679] ({CH2CO}-[Dap]Y(Carboxymethyl)DWV[Bip]V[Orn][dCha][Dab][Cha]VKC[Dab][AEEA][Aun]-OH; thioether N-14), for which the 50% inhibitory concentration (IC50) was 0.0269 µM.
Next, `CCCC[C@H]1NC(=O)[C@H](CCCN)NC(=O)[C@H](C(C)C)NC(=O)[C@H](Cc2ccc(-c3ccccc3)cc2)NC(=O)[C@H](C(C)C)NC(=O)[C@H](Cc2cccc(C)c2)NC(=O)[C@H](CC(=O)O)NC(=O)[C@H](Cc2ccc(OCC(=O)O)cc2)NC(=O)[C@H](CN)NC(=O)CSC[C@@H](C(=O)N[C@@H](CCN)C(=O)NCCOCCOCC(=O)NCCCCCCCCCCC(=O)O)NC(=O)[C@H](CN)NC(=O)[C@H](C(C)C)NC(=O)[C@H](CC2CCCCC2)NC(=O)[C@H](CCN)NC1=O` [Compound 2680] ({CH2CO}-[Dap]Y(Carboxymethyl)D[Phe(3-Me)]V[Bip]V[Orn][dNle][Dab][Cha]V[Dap]C[Dab][AEEA][Aun]-OH; thioether N-14): 0.0132 µM; `Cc1cccc(C[C@@H]2NC(=O)[C@H](CC(=O)O)NC(=O)[C@H](Cc3ccc(OCC(=O)O)cc3)NC(=O)[C@H](CN)NC(=O)CSC[C@@H](C(=O)N[C@@H](CCN)C(=O)NCCOCCOCC(=O)NCCCCCCCCCCC(=O)O)NC(=O)[C@H](CN)NC(=O)[C@H](C(C)C)NC(=O)[C@H](CC3CCCCC3)NC(=O)[C@H](CCN)NC(=O)[C@@H](CC3CCCCC3)NC(=O)[C@H](CCCN)NC(=O)[C@H](C(C)C)NC(=O)[C@H](Cc3ccc(-c4ccccc4)cc3)NC(=O)[C@H](C(C)C)NC2=O)c1` [Compound 2681] ({CH2CO}-[Dap]Y(Carboxymethyl)D[Phe(3-Me)]V[Bip]V[Orn][dCha][Dab][Cha]V[Dap]C[Dab][AEEA][Aun]-OH; thioether N-14): 0.013 µM; `CCCC[C@H]1NC(=O)[C@H](CCCN)NC(=O)[C@H](C(C)C)NC(=O)[C@H](Cc2ccc(-c3ccccc3)cc2)NC(=O)[C@H](C(C)C)NC(=O)[C@H](Cc2cccc(C)c2)NC(=O)[C@H](CC(=O)O)NC(=O)[C@H](Cc2ccc(OCC(=O)O)cc2)NC(=O)[C@H](CN)NC(=O)CSC[C@@H](C(=O)N[C@@H](CCN)C(=O)NCCOCCOCC(=O)NCCCCCCCCCCC(=O)O)NC(=O)[C@H](CCCNC(=N)N)NC(=O)[C@H](C(C)C)NC(=O)[C@H](CC2CCCCC2)NC(=O)[C@H](CCN)NC1=O` [Compound 2682] ({CH2CO}-[Dap]Y(Carboxymethyl)D[Phe(3-Me)]V[Bip]V[Orn][dNle][Dab][Cha]VRC[Dab][AEEA][Aun]-OH; thioether N-14): 0.0174 µM.
As to `Cc1cccc(C[C@@H]2NC(=O)[C@H](CC(=O)O)NC(=O)[C@H](Cc3ccc(OCC(=O)O)cc3)NC(=O)[C@H](CN)NC(=O)CSC[C@@H](C(=O)N[C@@H](CCN)C(=O)NCCOCCOCC(=O)NCCCCCCCCCCC(=O)O)NC(=O)[C@H](CCCNC(=N)N)NC(=O)[C@H](C(C)C)NC(=O)[C@H](CC3CCCCC3)NC(=O)[C@H](CCN)NC(=O)[C@@H](CC3CCCCC3)NC(=O)[C@H](CCCN)NC(=O)[C@H](C(C)C)NC(=O)[C@H](Cc3ccc(-c4ccccc4)cc3)NC(=O)[C@H](C(C)C)NC2=O)c1` [Compound 2683] ({CH2CO}-[Dap]Y(Carboxymethyl)D[Phe(3-Me)]V[Bip]V[Orn][dCha][Dab][Cha]VRC[Dab][AEEA][Aun]-OH; thioether N-14), the IC50 was 0.0149 µM.
